Laboratory results taken from the NIST ThermoML archive (doi:10.1016/j.jct.2019.02.011).

Experiment: xn = mol fraction of the nth substance listed
Conditions: Liquid, Vibrating tube method

COC(=O)OC [dimethyl carbonate] + CCO
mass density [kg/m3]
Conditions	100 kPa	5000 kPa	10000 kPa	15000 kPa	20000 kPa	25000 kPa	30000 kPa	35000 kPa	40000 kPa
298.15 K, x1 = 0.0252	–	–	–	–	–	814.77	818.23	821.35	824.85
298.15 K, x1 = 0.0506	–	–	–	–	–	824.39	827.85	831.03	834.55
298.15 K, x1 = 0.0757	–	–	–	–	–	833.72	837.24	840.42	843.95
298.15 K, x1 = 0.1003	–	–	–	–	–	842.57	846.09	849.38	852.92
298.15 K, x1 = 0.1508	–	–	–	–	–	860.52	864.11	867.41	871.01
298.15 K, x1 = 0.2	–	–	–	–	–	877.33	880.97	884.34	887.93
298.15 K, x1 = 0.2547	–	–	–	–	–	895.44	899.14	902.52	906.18
298.15 K, x1 = 0.3002	–	–	–	–	–	910.03	913.74	917.13	920.8
298.15 K, x1 = 0.3498	–	–	–	–	–	925.47	929.2	932.65	936.29
298.15 K, x1 = 0.4	–	–	–	–	–	940.64	944.38	947.84	951.52
298.15 K, x1 = 0.449	–	–	–	–	–	954.89	958.68	962.16	965.81
298.15 K, x1 = 0.4996	–	–	–	–	–	969.11	972.91	976.39	980.05
298.15 K, x1 = 0.5507	–	–	–	–	979.03	982.99	986.8	990.35	994.01
298.15 K, x1 = 0.6005	–	–	–	–	992.03	996	999.82	1003.37	1006.99
298.15 K, x1 = 0.6455	–	–	–	–	1003.31	1007.29	1011.17	1014.73	1018.41
298.15 K, x1 = 0.6931	–	–	–	–	1014.9	1018.88	1022.77	1026.34	1030.03
298.15 K, x1 = 0.7502	–	–	–	–	1028.23	1032.23	1036.12	1039.75	1043.4
298.15 K, x1 = 0.8009	–	–	–	–	1039.69	1043.7	1047.6	1051.24	1054.89
298.15 K, x1 = 0.8505	–	–	–	–	1050.49	1054.48	1058.39	1062.04	1065.71
298.15 K, x1 = 0.9008	–	–	–	–	1061.05	1065.07	1068.99	1072.64	1076.29
298.15 K, x1 = 0.9255	–	–	–	–	1066.12	1070.15	1074.07	1077.73	1081.38
298.15 K, x1 = 0.9477	–	–	–	–	1070.6	1074.63	1078.55	1082.21	1085.85
298.15 K, x1 = 0.9735	–	–	–	–	1075.75	1079.76	1083.68	1087.3	1090.94
298.15 K, x1 = 1	–	–	–	–	1080.9	1084.89	1088.82	1092.44	1096.04
303.15 K, x1 = 0.0252	790.52	794.85	799.09	803.19	807.07	810.85	814.45	–	–
303.15 K, x1 = 0.0506	799.8	804.24	808.54	812.68	816.57	820.4	824.05	–	–
303.15 K, x1 = 0.0757	808.95	813.38	817.69	821.83	825.78	829.67	833.32	–	–
303.15 K, x1 = 0.1003	817.66	822.15	826.46	830.66	834.61	838.5	842.15	–	–
303.15 K, x1 = 0.1508	835.2	839.75	844.12	848.37	852.39	856.28	859.99	–	–
303.15 K, x1 = 0.2	851.75	856.29	860.68	864.98	869.06	873.01	876.77	–	–
303.15 K, x1 = 0.2547	869.58	874.18	878.59	882.88	886.98	890.99	894.76	–	–
303.15 K, x1 = 0.3002	883.92	888.57	893.03	897.33	901.44	905.46	909.28	–	–
303.15 K, x1 = 0.3498	899.15	903.81	908.28	912.64	916.76	920.83	924.6	–	–
303.15 K, x1 = 0.4	914.01	918.72	923.21	927.61	931.75	935.83	939.65	–	–
303.15 K, x1 = 0.449	928.1	932.82	937.32	941.72	945.87	949.95	953.78	–	–
303.15 K, x1 = 0.4996	942.11	946.83	951.34	955.75	959.95	964.05	967.88	–	–
303.15 K, x1 = 0.5507	955.78	960.51	965.03	969.44	973.66	977.76	981.64	–	–
303.15 K, x1 = 0.6005	968.59	973.37	977.9	982.31	986.54	990.65	994.54	–	–
303.15 K, x1 = 0.6455	979.73	984.57	989.11	993.57	997.8	1001.97	1005.86	–	–
303.15 K, x1 = 0.6931	991.23	996.02	1000.62	1005.08	1009.33	1013.44	1017.34	–	–
303.15 K, x1 = 0.7502	1004.42	1009.26	1013.82	1018.28	1022.54	1026.71	1030.61	–	–
303.15 K, x1 = 0.8009	1015.74	1020.59	1025.15	1029.62	1033.88	1038.07	1041.97	–	–
303.15 K, x1 = 0.8505	1026.43	1031.28	1035.85	1040.32	1044.59	1048.83	–	–	–
303.15 K, x1 = 0.9008	1036.88	1041.74	1046.31	1050.81	1055.12	1059.33	–	–	–
303.15 K, x1 = 0.9255	1041.88	1046.76	1051.32	1055.83	1060.15	1064.37	–	–	–
303.15 K, x1 = 0.9477	1046.34	1051.21	1055.79	1060.28	1064.6	1068.85	–	–	–
303.15 K, x1 = 0.9735	1051.45	1056.32	1060.89	1065.37	1069.67	1073.92	–	–	–
303.15 K, x1 = 1	1056.61	1061.47	1066.02	1070.49	1074.79	1078.99	–	–	–
